# Measured values published in patent US6630310B1, “Assay for binding between carbohydrate and glycolipid” (Biopolymer Engineering Pharmaceutical, Inc., priority 1996, dated 2003).
# Entries after “also recorded” stand apart in the source; their conditions may differ.
# What was measured:
# [1] = Specific binding of ^3H-PGG-Glucan to sphingolipids in the 96-well plate assay; design: ^3H-PGG-Glucan bound (specific binding): unit not given here; settings: for ^3H-PGG-Glucan bound (specific binding): LacCer of defined fatty acid and long chain base, 96-well plate; for 3H-PGG-Glucan Bound (specific binding): sphingolipid immobilized in 96-well plate, 37° C.; for specific binding to ^3H-underivatized, aqueous soluble β(1-3)-glucan (in words): immobilized on a polystyrene 96-well plate
# Method: Lactosyl ceramide or the sample to be measured was suspended in ethanol. Aliquots as specified were added in triplicate to the wells of a 96-well plate and air dried. The following components were premixed, then 100 μL was added to each well: saline (10 μL) or unlabelled, underivatized, aqueous soluble β(1-3)-glucan (10 μL of a 10 mg/ml stock), ^3H-underivatized, aqueous soluble β(1-3) glucan (10 μL of a 10 μg/ml stock), and HBSS (80 μL). Plates were incubated at 37° C. for 1.5 to 2 hours, then supernatants were removed from each well and discarded. Wells were rinsed with HBSS (200 μL) and SOLVABLE™ (100 μL) was added. The plate was incubated at 60° C. for 5 minutes, then supernatants were removed and counted.
# [2] = system: human leukocyte membranes; test: ^3H-PGG-Glucan binding to pretreated human leukocyte membranes; settings: for effect of detergent pretreatment of membranes on specific binding (in words): membranes pretreated 5 minutes on ice (CHAPS 0.25%) (FIG. 9)
# Method: Human leukocyte membranes were incubated in HBSS with or without 0.25% CHAPS for 5 minutes on ice, followed by centrifugation at 180,000×g, 4° C. for 45 minutes. Pellets were used in a binding assay with underivatized, aqueous soluble β(1-3)-glucan or dextran (avg. MW 71,000, Sigma Chemical Co., MO) as indicated at 1 mg/ml final concentration.
# Human leukocyte membranes (500 μg protein) were incubated with sodium periodate at concentrations indicated in FIG. 12 (10 and 100 mM) for 30 minutes at room temperature, then centrifuged at 12,000×g for 10 minutes, rinsed and used in a binding assay (non-oil/sucrose; see FIG. 12). Protein-depleted membranes (derived from 1.87 mg human leukocyte membrane protein) were incubated in 0.1 M sodium periodate and treated as described above (FIG. 13).
# An alternative procedure to that using the oil/sucrose gradient involved centrifuging 100 μl aliquots of the binding assay in microfuge tubes at 12,000×g, for five minutes, followed by rinsing the resultant pellet with HBSS. Pellets were then dissolved in SOLVABLE™ and radioactively determined as above.
# [3] = system: receptor for underivatized, aqueous soluble β(1-3)-glucan on human leukocyte membranes; test: Competition of ^3H-PGG-Glucan binding to human leukocyte membranes (oil/sucrose binding assay)
# Method: Aminated glucan was prepared by reductive amination of curdlan and provided by Dr. Rolph Seljelid (University of Tromsφ, Tromsφ, Norway).
# At the end of the incubation, 100 μl aliquots of reaction mixture were layered on top of a double layer density gradient consisting of 100 μl dibutyl phthalate (lower layer) and 100 μl 8% sucrose in PBS (upper layer) in 400 μl centrifuge tubes (Brinkman). The tubes were spun at 15,000×g for 4-5 minutes and the tips containing the membrane pellets were removed, incubated in 300 μl SOLVABLE™ (New England Nuclear, Boston, Mass.) overnight at 50° C. to dissolve the pellet, and then radioactivity determined by liquid scintillation counting. […] Alternatively, membranes were centrifuged directly in their incubation tubes at 15,000×g for 4-5 minutes at 37° C., the pellet washed with HBSS, then pellets solubilized and radioactivity determined by liquid scintillation counting.
# [4] = Competition of ^3H-PGG-Glucan binding to lactosyl ceramide in 96-well plate assay (FIGS. 14, 15); design: species or system bovine; settings: FIGS. 14 and 15
# From the text: FIG. 14 is a graph of the comparison of underivatized, aqueous soluble β(1-3)-glucan and single helix competition of ^3H-underivatized, aqueous soluble β(1-3)-glucan binding in three assay formats. Underivatized, aqueous soluble β(1-3)-glucan or single helix glucan was used at designated concentrations to compete for ^3H-underivatized, aqueous soluble β(1-3)-glucan binding to lactosyl ceramide (LacCer) in a 96-well plate (triangles), or to lactosyl ceramide in reconstituted membranes (squares), or to human leukocyte membranes (circles). Open symbols represent underivatized, aqueous soluble β(1-3) glucan, and closed symbols represent single helix. Maximum competition was assigned at the highest concentration of underivatized, aqueous soluble β(1-3)-glucan used as competitor in each type of assay.
# FIG. 15 is a graphic illustration of data showing that underivatized, aqueous soluble β(1-3) glucan and high molecular weight underivatized, aqueous soluble β(1-3) glucan (Network) compete more effectively for ^3H-underivatized, aqueous soluble β(1-3)-glucan binding to lactosyl ceramide in a 96-well plate assay than do single helix or laminarin. […]
# Lactosyl ceramide or the sample to be measured was suspended in ethanol. […] The plate was incubated at 60° C. for 5 minutes, then supernatants were removed and counted.
# [5] = addition at 0.1 mg/ml, ^3H-PGG-Glucan binding to human leukocyte membranes
compound,measurement,setting,value
CCCCCCCCCCCCCCCCCCCCCCCC(=O)NC(CO[C@@H]1O[C@H](CO)[C@@H](O[C@@H]2O[C@H](CO)[C@H](O)[C@H](O)[C@H]2O)[C@H](O)[C@H]1O)C(O)CCCCCCCCCCCCCCC (mixture of isomers) [N-Lignoceroyl-DL-dihydrolacto-cerebroside],^3H-PGG-Glucan bound (specific binding),[1],0.00
CCCCCCCCCCCCCCCC(=O)NC(CO[C@@H]1O[C@H](CO)[C@@H](O[C@@H]2O[C@H](CO)[C@H](O)[C@H](O)[C@H]2O)[C@H](O)[C@H]1O)C(O)CCCCCCCCCCCCCCC (mixture of isomers) [N-Palmitoyl-DL-dihydrolacto-cerebroside],^3H-PGG-Glucan bound (specific binding),[1],0.00
CCCCCCCCCCCCCCCCCC(=O)NC(CO[C@@H]1O[C@H](CO)[C@@H](O[C@@H]2O[C@H](CO)[C@H](O)[C@H](O)[C@H]2O)[C@H](O)[C@H]1O)C(O)CCCCCCCCCCCCCCC (mixture of isomers) [N-Stearoyl-DL-dihydrolacto-cerebroside],^3H-PGG-Glucan bound (specific binding),[1],0.00
C[C@H](CCC(=O)NCCC[N+](C)(C)CCCS(=O)(=O)[O-])[C@H]1CC[C@H]2[C@@H]3[C@H](O)C[C@@H]4C[C@H](O)CC[C@]4(C)[C@H]3C[C@H](O)[C@]12C [CHAPS],effect of detergent pretreatment of membranes on specific binding (in words),[2],enhancement of specific binding
O=C(O)CN(CCOCCOCCN(CC(=O)O)CC(=O)O)CC(=O)O [EGTA],% Control Binding,[3]; addition at 5 mM,87%
CCCCCCCCCCCCCC=CC(O)C(COC1OC(CO)C(OC2OC(CO)C(O)C(O)C2O)C(O)C1O)NC(=O)CCCCCCCCCCCCCCC (stereo not drawn) [LacCer (HLM) C16:0],^3H-PGG-Glucan bound (specific binding),[1],3.31
CCCCCCCCCCCCC/C=C/[C@@H](O)[C@H](CO[C@@H]1O[C@H](CO)[C@@H](O[C@@H]2O[C@H](CO)[C@H](O)[C@H](O)[C@H]2O)[C@H](O)[C@H]1O)NC(=O)CCCCCCCCCCCCCCCCC [LacCer (HLM) C18:0],^3H-PGG-Glucan bound (specific binding),[1],1.93
CCCCCCCCCCCCCC=CC(O)C(COC1OC(CO)C(OC2OC(CO)C(O)C(O)C2O)C(O)C1O)NC(=O)CCCCCCCCCCCCCCCCCCCCC (stereo not drawn) [LacCer (HLM) C22:0],^3H-PGG-Glucan bound (specific binding),[1],3.57
CCCCCCCCCCCCC/C=C/[C@@H](O)[C@H](CO[C@@H]1O[C@H](CO)[C@@H](O[C@@H]2O[C@H](CO)[C@H](O)[C@H](O)[C@H]2O)[C@H](O)[C@H]1O)NC(=O)CCCCCCCCCCCCCCCCCCCCCCC [LacCer (HLM) C24:0],^3H-PGG-Glucan bound (specific binding),[1],3.14
CCCCCCCCCCCCC/C=C/[C@@H](O)[C@@H](N)CO [Sphingosine],3H-PGG-Glucan Bound (specific binding),[1],0.02 ± 0.00 ng/μg sphingolipid
OC[C@H]1O[C@@H](O[C@@H]2[C@@H](O)[C@H](O[C@@H]3[C@@H](O)[C@H](O[C@@H]4[C@@H](O)[C@H](O[C@@H]5[C@@H](O)[C@H](O[C@@H]6[C@@H](O)[C@H](O[C@@H]7[C@@H](O)[C@H](O)O[C@H](CO)[C@H]7O)O[C@H](CO)[C@H]6O)O[C@H](CO)[C@H]5O)O[C@H](CO)[C@H]4O)O[C@H](CO)[C@H]3O)O[C@H](CO)[C@H]2O)[C@H](O)[C@@H](O)[C@@H]1O [laminariheptose],"inhibition of radioactively labeled underivatized, aqueous soluble β(1-3)-glucan binding to human leukocyte membranes (in words)",[3],no effect
CCCCCCCCO[C@@H]1O[C@H](CO)[C@@H](O)[C@H](O)[C@H]1O [octylglucoside],effect of detergent pretreatment of membranes on specific binding (in words),[2],enhancement of specific binding
[Na+].[O-][I+3]([O-])([O-])[O-] [sodium periodate],effect of sodium periodate treatment of membranes on binding activity (in words),"[2]; 10 and 100 mM, 30 minutes at room temperature (FIGS. 12, 13)",decreased
Ceramides,3H-PGG-Glucan Bound (specific binding),[1],0.02 ± 0.01 ng/μg sphingolipid
Dextran,% Control Binding,[3]; addition at 1 mg/ml,88%
Globoside,3H-PGG-Glucan Bound (specific binding),[1],0.00 ± 0.01 ng/μg sphingolipid
Glycogen,% Control Binding,[3]; [5],134%
Laminarin,"inhibition of radioactively labeled underivatized, aqueous soluble β(1-3)-glucan binding to human leukocyte membranes (in words)",[3],do not inhibit; also recorded: not inhibited
same,% Control Binding,[3]; addition at 1 mg/ml,83%
same,"competition for ^3H-underivatized, aqueous soluble β(1-3)-glucan binding to LacCer in the 96-well plate assay (in words)",[4],does not compete efficiently
Lipopolysaccharide,% Control Binding,[3]; [5],89%
Mannan,% Control Binding,[3]; addition at 1 mg/ml,88%
Sulfatides,3H-PGG-Glucan Bound (specific binding),[1],0.00 ± 0.01 ng/μg sphingolipid
galactosyl ceramides,"specific binding to ^3H-underivatized, aqueous soluble β(1-3)-glucan (in words)",[1],significant specific binding
globotriaosyl ceramide [GlobotriaosylCer],"specific binding to ^3H-underivatized, aqueous soluble β(1-3)-glucan (in words)",[1],significant specific binding
same,3H-PGG-Glucan Bound (specific binding),[1],0.84 ± 0.13 ng/μg sphingolipid
lactosyl ceramide,"specific binding to ^3H-underivatized, aqueous soluble β(1-3)-glucan (in words)",[1],significant specific binding
